According to US20110003688A1, “Pesticidal Compound Mixtures” (Bayer CropScience AG, priority 2007, published 2011):

Legend:
Format in all cases: in vivo
Settings in all cases: mortality
[1] = system: cotton aphid (Aphis gossypii); experiment: Aphis gossypii test (sprayed infested cotton leaves)
Description: (§1) To produce a suitable preparation of active compound, 1 part by weight of active compound is mixed with the stated amount of solvent and emulsifier, and the concentrate is diluted with emulsifier-containing water to the desired concentration.
Cotton leaves (Gossypium hirsutum) which are heavily infested by the cotton aphid (Aphis gossypii) are treated by being sprayed with the preparation of the active compound at the desired concentration.
(§2) After the specified period of time, the mortality in % is determined. 100% means that all the aphids have been killed; 0% means that none of the aphids have been killed.

[2] = system: green peach aphid (Myzus persicae); experiment: Myzus persicae test (sprayed infested cabbage leaves)
Description: as §1
Cabbage leaves (Brassica oleracea) which are heavily infested by the green peach aphid (Myzus persicae) are treated by being sprayed with the preparation of the active compound at the desired concentration.
as §2

[3] = system: larvae of the beet army worm (Spodoptera exigua); experiment: Spodoptera exigua test (sprayed cabbage leaves infested with larvae)
Description: as §1
Cabbage leaves (Brassica oleracea) are treated by being sprayed with the preparation of the active compound at the desired concentration and are infested with larvae of the beet army worm (Spodoptera exigua) as long as the leaves are still moist.
(§3) After the specified period of time, the mortality in % is determined. 100% means that all the caterpillars have been killed; 0% means that none of the caterpillars have been killed.

[4] = system: larvae of the fall army worm (Spodoptera frugiperda); experiment: Spodoptera frugiperda test (sprayed cabbage leaves infested with larvae)
Description: as §1
Cabbage leaves (Brassica oleracea) are treated by being sprayed with the preparation of the active compound at the desired concentration and are infested with larvae of the fall army worm (Spodoptera frugiperda) as long as the leaves are still moist.
as §3

CC1(C)C(C=C(Cl)Cl)C1C(=O)OC(C#N)c1ccc(F)c(Oc2ccccc2)c1 (centres unmarked) [Cyfluthrin, cyfluthrin]
Efficacy in % after 1 day ([1]; 0.8 ppm): 25%

CC1(C)[C@H](C(=O)O[C@H](C#N)c2cccc(Oc3ccccc3)c2)[C@@H]1C=C(Br)Br [Deltamethrin, deltamethrin]
Efficacy in % after 1 day ([2]; 0.8 ppm): 50% | Efficacy in % after 4 days ([3]; 0.16 ppm): 0% | Efficacy in % after 4 days ([4]; 0.8 ppm): 70%

CC[S+]([O-])c1c(C#N)nn(-c2c(Cl)cc(C(F)(F)F)cc2Cl)c1N (centres unmarked) [Ethiprole, ethiprole]
Efficacy in % after 1 day ([1]; 4 ppm): 30% | Efficacy in % after 1 day ([2]; 4 ppm): 0% | Efficacy in % after 6 days ([2]; 4 ppm): 0% | Efficacy in % after 4 days ([3]; 0.8 ppm): 0% | Efficacy in % after 4 days ([4]; 4 ppm): 40%

CC1(C)[C@H](C(=O)O[C@H](C#N)c2cccc(Oc3ccccc3)c2)[C@@H]1/C=C(\Cl)C(F)(F)F [L-Cyhalothrin, lambda-cyhalothrin]
Efficacy in % after 6 days ([2]; 0.8 ppm): 45%

CC1(C)C(C=C(Cl)Cl)C1C(=O)OC(C#N)c1ccc(F)c(Oc2ccccc2)c1 (stereo not drawn) [β-Cyfluthrin, beta-cyfluthrin]
Efficacy in % after 6 days ([2]; 0.8 ppm): 75%
